Laboratory results: patent US10792324B2, “Compositions and methods for the treatment of orthopedic ailments” (K.L.R.M., LLC, priority 2016, dated 2020)

Experiments:
femur fracture [1] = assay: Callus development analysis via qCT after femur fracture; assay type: in vivo, rat; details: osteotomy site
Procedure: As briefly mentioned above, efficacy of the present nutraceutical composition was tested. Fifty-eight male Sprague-Dawley rats (10 weeks old, body weight (BW): 344±11 g) were used for this study, which was approved by the Institutional Animal Care and Use Committee of the Charles R. Drew University of Medicine and Science. The rats were housed for one week prior to experimental procedures to permit acclimatization and then randomly assigned to three groups. The control group (n=19 rats) received 0.2 ml of vehicle composed of 10% dimethyl sulfoxide (DMSO), peanut butter and water by retro-lingual administration. The tadalafil group (n=20 rats) was given a daily oral dose of 2.0 mg/kg body weight (BW) of the PDE5 inhibitor, tadalafil (Eli Lilly, Indianapolis, Ind.), mixed with vehicle. […] The COMB-4 group (Naturex, […]=19 rats), that is, the group receiving the nutraceutical composition in accordance with the present invention, received a combination of Muira puama (45 mg/kg body weight BW), Paullinia cupana (45 mg/kg BW), ginger (45 mg/kg BW) and L-citrulline (133 mg/kg BW) dissolved in vehicle. The appropriate rat dose of each of the four components of COMB-4 was calculated based on the equivalent recommended human daily dose as previously reported. See International Patent Publication Number WO 2012/067745 A 1 for more details on the ingredients in COMB-4, ranges of ingredients, and the beneficial effects thereof in treating Erectile Dysfunction and cardiovascular disease. All animals received the vehicle only for the three days prior to surgery to get the animals adapted to the taste, and began receiving either their respectively assigned control or experimental daily dose of tadalafil or COMB-4 on the same day right after the fracture (day 0). All surgeries were performed by one orthopedic surgeon who was blinded to the rats' experimental assignment. Anesthesia was induced with 3% isoflurane and maintained with 2.5% isoflurane throughout the surgery. All rats received subcutaneous injections of buprenorphine 0.05 mg/kg body weight for pre- and post-operative pain control. Each rat then underwent a unilateral femur fracture with internal fixation. […] The underlying fascia was incised at the medial patellar tendon border and the patella was dislocated laterally. The trochlea was opened with a 1.0 mm drill bit and the intramedullary canal and greater trochanter were […] 21-3 gauge hypodermic needle. The intramedullary canal was sequentially […] 18-gauge needle, and the epicondyle was further opened with a 16-gauge needle. The femoral shaft was accessed by sweeping the vastus medialis laterally. A cat claw scissors (Petco, San Diego, Calif.) placed at the junction of the middle and distal one-third of the femoral shaft was used to make a transverse fracture. A randomizer table was used to determine laterality of the osteotomy. While maintaining control of both fracture fragments, a titanium compression intramedullary screw ([…], Davos, Switzerland) was applied in a retrograde manner while directly visualizing the fracture reduction. […] The fascia and skin were closed in two layers utilizing 4-0 Vicryl (Ethicon Inc., Somerville, N.J.) and VetBond skin glue (3M, St. Paul, Minn.). A small amount of triple antibiotic ointment ([…].) was applied to the skin. Range of motion at the hip and knee was performed to ensure there was no penetration of the screw proximally and that the patella was adequately tracking. Unprotected weight bearing was permitted immediately postoperatively, and on day 14, 5 rats from each group were euthanized using inhalational CO2 and femora were harvested for qCT (quantitative computerized tomography) and histological evaluation. On day 42, fifteen (15) rats from each group were euthanized for qCT and histological evaluation. The remaining rats were euthanized for biomechanical testing. Mineral Content and Callus Volume. […]

femur fracture [2] = assay: Biomechanical evaluation (torsion to failure) of healing femur fracture; assay type: in vivo, rat
Procedure: As briefly mentioned above, efficacy of the present nutraceutical composition was tested. Fifty-eight male Sprague-Dawley rats (10 weeks old, body weight (BW): 344±11 g) were used for this study, which was approved by the Institutional Animal Care and Use Committee of the Charles R. Drew University of Medicine and Science. The rats were housed for one week prior to experimental procedures to permit acclimatization and then randomly assigned to three groups. The control group (n=19 rats) received 0.2 ml of vehicle composed of 10% dimethyl sulfoxide (DMSO), peanut butter and water by retro-lingual administration. The tadalafil group (n=20 rats) was given a daily oral dose of 2.0 mg/kg body weight (BW) of the PDE5 inhibitor, tadalafil (Eli Lilly, Indianapolis, Ind.), mixed with vehicle. […] The COMB-4 group (Naturex, […]=19 rats), that is, the group receiving the nutraceutical composition in accordance with the present invention, received a combination of Muira puama (45 mg/kg body weight BW), Paullinia cupana (45 mg/kg BW), ginger (45 mg/kg BW) and L-citrulline (133 mg/kg BW) dissolved in vehicle. The appropriate rat dose of each of the four components of COMB-4 was calculated based on the equivalent recommended human daily dose as previously reported. See International Patent Publication Number WO 2012/067745 A 1 for more details on the ingredients in COMB-4, ranges of ingredients, and the beneficial effects thereof in treating Erectile Dysfunction and cardiovascular disease. All animals received the vehicle only for the three days prior to surgery to get the animals adapted to the taste, and began receiving either their respectively assigned control or experimental daily dose of tadalafil or COMB-4 on the same day right after the fracture (day 0). All surgeries were performed by one orthopedic surgeon who was blinded to the rats' experimental assignment. Anesthesia was induced with 3% isoflurane and maintained with 2.5% isoflurane throughout the surgery. All rats received subcutaneous injections of buprenorphine 0.05 mg/kg body weight for pre- and post-operative pain control. Each rat then underwent a unilateral femur fracture with internal fixation. […] The underlying fascia was incised at the medial patellar tendon border and the patella was dislocated laterally. The trochlea was opened with a 1.0 mm drill bit and the intramedullary canal and greater trochanter were […] 21-3 gauge hypodermic needle. The intramedullary canal was sequentially […] 18-gauge needle, and the epicondyle was further opened with a 16-gauge needle. The femoral shaft was accessed by sweeping the vastus medialis laterally. A cat claw scissors (Petco, San Diego, Calif.) placed at the junction of the middle and distal one-third of the femoral shaft was used to make a transverse fracture. A randomizer table was used to determine laterality of the osteotomy. While maintaining control of both fracture fragments, a titanium compression intramedullary screw ([…], Davos, Switzerland) was applied in a retrograde manner while directly visualizing the fracture reduction. […] The fascia and skin were closed in two layers utilizing 4-0 Vicryl (Ethicon Inc., Somerville, N.J.) and VetBond skin glue (3M, St. Paul, Minn.). […] Unprotected weight bearing was permitted immediately postoperatively, and on day 14, 5 rats from each group were euthanized using inhalational CO2 and femora were harvested for qCT (quantitative computerized tomography) and histological evaluation. […]

[3] = Newly formed Total Callus (>299 mg/cm^3), Day 14, mean ± S.D.
[4] = Newly formed Total Callus (>299 mg/cm^3), Day 42, mean ± S.D.
[5] = Newly formed Total Callus (>500 mg/cm^3), Day 14, mean ± S.D.
[6] = Newly formed Total Callus (>500 mg/cm^3), Day 42, mean ± S.D.
[7] = day 42, relative to control group
[8] = day 42, torsion test, mean ± S.D.

SMILES: CN1CC(=O)N2[C@H](c3ccc4c(c3)OCO4)c3[nH]c4ccccc4c3C[C@@H]2C1=O [Tadalafil, tadalafil]
- Bone Density (femur fracture [1]; [3]): 458.4 ± 29.2 mg/mL
- Callus Volume (femur fracture [1]; [3]): 44.9 ± 11.7 mm^3
- Mineral Content (femur fracture [1]; [3]): 20.8 ± 6.3 mg
- Bone Density (femur fracture [1]; [4]): 510.0 ± 18.9 mg/mL
- Callus Volume (femur fracture [1]; [4]): 66.3 ± 22.3 mm^3
- Mineral Content (femur fracture [1]; [4]): 34.1 ± 12.7 mg
- Callus Volume (femur fracture [1]; [5]): 16.4 ± 4.7 mm^3
- Mineral Content (femur fracture [1]; [5]): 11.0 ± 3.8 mg
- Callus Volume (femur fracture [1]; [6]): 35.6 ± 12.6 mm^3
- Mineral Content (femur fracture [1]; [6]): 24.1 ± 8.3 mg
- Bone Density (femur fracture [1]; Newly formed Total Callus, Day 14, mean ± S.D.): 665.0 ± 2.0 mg/mL
- Bone Density (femur fracture [1]; Newly formed Total Callus, Day 42, mean ± S.D.): 697.2 ± 12.4 mg/mL
- higher maximum strength (maximum torque) than control group (femur fracture [2]; [7]): 15%
- higher stiffness than control group (femur fracture [2]; [7]): 28%
- Maximum Torque (femur fracture [2]; [8]): 326.8 ± 138.0 Nmm
- Torsional Stiffness (femur fracture [2]; [8]): 59.9 ± 31.1 Nmm/Deg.
- Fracture Repair Stage (I, II, III or IV) (femur fracture [2]; day 42, torsion test, mean ± S.D., I = 1, II = 2, III = 3, IV = 4): 2.4 ± 0.5
